Experimental data: patent US7695931B2, “Carotenoid hydroxylase gene, method for preparing hydroxylated carotenoid, and novel geranylgeranyl pyrophosphate synthase” (Kirin Holdings Kabushiki Kaisha, priority 2003, dated 2010)

Assays:
[1] = test system: lipid peroxidation in rat brain homogenate; experiment: in vitro anti-peroxidation activity: lipid peroxidation in rat brain homogenate (TBA, A532); format: biochemical; conditions: for IC50: concentration halving A532 vs non-addition group, ascorbic acid 100 μM, pH 7.4, 37° C., 1 hr, read-out: IC50 (μM), inhibitory effect on lipid peroxidation in rat brain homogenate; for inhibitory effect on lipid peroxidation (in words): rat brain homogenate, in vitro
Experimental: Although various carotenoids have a wide variety of physiological activities and effects, it is believed that activity to inhibit peroxidation of lipids in the living body caused by oxygen radicals is the basis for all activities/effects. Therefore, in vitro inhibitory effects of the two carotenoids synthesized in Example 14 on lipid peroxidation caused by free radicals were examined using rat brain homogenate. This assay was conducted basically according to the method of Kubo et al. (Kubo, K., Yoshitake, Y., Kumada, K., Shuto K., Nakamizo, N. “Radical scavenging action of flunarizine in rat brain in vitro”. Arch. Int. Pharmacodyn. Ther. 272, 283-295, 1984). Briefly, 0.05 ml of methanol solution of a test sample, 0.1 ml of 1 mM ascorbic acid (final concentration 100 μM) and 0.05 ml of H2O were added to 0.6 ml of 100 mM phosphate buffer (pH 7.4) and pre-incubated at 37° C. for 5 min. Then, 0.2 ml of 2.5% (w/v) rat brain homogenate was added thereto to start reaction, followed by incubation at 37° C. for 1 hr under shaking. One milliliter of a mixed solution containing 20% (w/v) trichloroacetic acid, 0.5% (w/v) 2-thiobarbituric acid and 0.2 N HCl was added to the above reaction solution to terminate the reaction. The resultant solution was boiled at 100 ° C. for 30 min for color development. After cooling, the solution was centrifuged at 3000 rpm for 5 min. Absorbance at 532 nm (A532) of the resultant supernatant was measured. The concentration of test sample which is required to decrease the A532 of test sample addition group to one half of the A532 of test sample non-addition group was calculated as IC50. This value was taken as lipid peroxidation inhibitory effect in rat brain homogenate.

[2] = test system: skin cancer; conditions: carotenoid-administered mice; incidence in control mice without carotenoid administration taken as 100%; cited from earlier work
[3] = test system: liver cancer; conditions: carotenoid-administered mice; incidence in control mice without carotenoid administration taken as 100%; cited from earlier work
[4] = test system: lung cancer; conditions: cited from earlier work; for incidence of lung cancer: carotenoid-administered mice, incidence in control mice without carotenoid administration taken as 100%
[5] = compared with β-carotene; cited from earlier work

Compound	IC50 [1] [µM]	incidence of skin cancer [2] [%]	incidence of liver cancer [3] [%]	incidence of lung cancer [4] [%]	other results
CC1=C(/C=C/C(C)=C/C=C/C(C)=C/C=C/C=C(C)/C=C/C=C(C)/C=C/C2=C(C)C(=O)CC(O)C2(C)C)C(C)(C)C(O)CC1=O (single isomer, unassigned) [2,2′-Dihydroxycanthaxanthin, 2,2′-dihydroxy-β,β-carotene-4,4′-dione]	4.8	–	–	–	inhibitory effect on lipid peroxidation (in words) [1]: strong inhibitory effects on lipid peroxidation
CC1=C(/C=C/C(C)=C/C=C/C(C)=C/C=C/C=C(C)/C=C/C=C(C)/C=C/C2=C(C)C(=O)CC(O)C2(C)C)C(C)(C)CCC1=O (single isomer, unassigned) [2-Hydroxycanthaxanthin, 2-hydroxy-β,β-carotene-4,4′-dione]	8.1	–	–	–	inhibitory effect on lipid peroxidation (in words) [1]: strong inhibitory effects on lipid peroxidation
CC1=C(/C=C/C(C)=C/C=C/C(C)=C/C=C/C=C(C)/C=C/C=C(C)/C=C/C2=C(C)C(=O)CCC2(C)C)C(C)(C)CCC1=O [Canthaxanthin]	50	–	–	–	–
CC1=C(/C=C/C(C)=C/C=C/C(C)=C/C=C/C=C(C)/C=C/C=C(C)/C=C/C2=C(C)C(=O)[C@@H](O)CC2(C)C)C(C)(C)C[C@H](O)C1=O [astaxanthin]	–	100	30	70	–
CC1=C[C@H](O)CC(C)(C)[C@H]1/C=C/C(C)=C/C=C/C(C)=C/C=C/C=C(C)/C=C/C=C(C)/C=C/C1=C(C)C[C@@H](O)CC1(C)C [lutein]	–	–	50	70	–
CC(C)=CCC/C(C)=C/C=C/C(C)=C/C=C/C(C)=C/C=C/C=C(C)/C=C/C=C(C)/C=C/C=C(\C)CCC=C(C)C [lycopene]	–	10	100	–	inhibition of lung cancer (in words) ([4]; comparison of the three carcinogenesis models): highly effective in inhibiting lung cancer
CC1=CCCC(C)(C)C1/C=C/C(C)=C/C=C/C(C)=C/C=C/C=C(C)/C=C/C=C(C)/C=C/C1=C(C)CCCC1(C)C (stereo not drawn) [α-carotene]	–	–	50	40	–
CC1=C(/C=C/C(C)=C/C=C/C(C)=C/C=C/C=C(C)/C=C/C=C(C)/C=C/C2=C(C)CCCC2(C)C)C(C)(C)CCC1 [β-Carotene, β-carotene]	> 100	–	70	139	–
CC1=C(/C=C/C(C)=C/C=C/C(C)=C/C=C/C=C(C)/C=C/C=C(C)/C=C/C2=C(C)C[C@@H](O)CC2(C)C)C(C)(C)CCC1 [β-cryptoxanthin]	–	–	–	–	intake ratio into the living body relative to β-carotene [5]: 10 times
fucoxanthin	–	10	30	–	–
